Tests used:
2-009 cells [1] = assay: IncuCyte assay with YOYO-1 green fluorescence (apoptosis); format: cell-based; conditions: over 3 days
Procedure: (§1) Cell confluence and apoptosis were analyzed by IncuCyte live cell imaging assays. Drug combination synergy was calculated using Synergy Finder software.

JW23.3 cells [2] = assay: IncuCyte cell death assay with YOYO-1 green fluorescent dye (apoptosis); conditions: 72 hours
Procedure: (§2) To gain further insight into the role of TYK2 in MPNST, the effect of pharmacologic inhibition of TYK2 was examined using IncuCyte Live Cell Imaging experiments for proliferation and cell death assay with YOYO-1 green fluorescent dye.
(§3) MPNST cell lines were plated at 2500 cells/well in 96 well plates in growth media and incubated overnight. […] Cells were imaged every 1-2 hours by IncuCyte Zoom Live-Cell Analysis System (Essen Bioscience, Sartorius, Ann Arbor, MI). Cell proliferation was determined as percent confluence from phase images and was analyzed by IncuCyte image analysis software (Sartorius). For cell death assays, 50 nmol/L YOYO-1 green fluorescent dye (Thermo Fisher) was added to treatment medium, and apoptosis was calculated as green objects normalized to the confluency factor and the initial timepoint. IC50 values were calculated in GraphPad Prism version 9 (GraphPad Software, San Diego, CA).

JW23.3 cells [3] = assay: IncuCyte live cell proliferation assay (percent cell confluence); format: cell-based, murine
Procedure: as §2, §3

2-009 cells [4] = assay: IncuCyte live cell imaging assay (cell confluence); format: cell-based; conditions: over 3 days
Procedure: as §1

JH-2-002 cells = assay: IncuCyte live cell proliferation assay (percent cell confluence)
Procedure: as §2, §3

[5] = test system: JW23.3 MPNST xenograft tumors; assay: MPNST tumor growth in immunocompetent C57BL6 mice; conditions: JW23.3 in immunocompetent mice; daily oral gavage; 1.5 mg/kg deucravacitinib, 30 mg/kg mirdametinib (FIG. 10 legend)
WU-386 cells = assay: IncuCyte live cell proliferation assay (percent cell confluence); format: cell-based, human; conditions: 3 days
Procedure: as §2
(§4) MPNST cell lines were plated at 2500 cells/well in 96 well plates in growth media and incubated overnight. […] Cells were imaged every 1-2 hours by IncuCyte Zoom Live-Cell Analysis System (Essen Bioscience, Sartorius, Ann Arbor, MI). Cell proliferation was determined as percent confluence from phase images and was analyzed by IncuCyte image analysis software (Sartorius). […] IC50 values were calculated in GraphPad Prism version 9 (GraphPad Software, San Diego, CA).

WU-356 cells = assay: as above; format: cell-based, human; conditions: 3 days
Procedure: as §2, §4

JAK1-3 = conditions: at clinically relevant doses; cited from earlier work
WU-386 MPNST xenograft = assay: MPNST xenograft tumor growth in NRG mice; conditions: WU-386 in NRG mice; daily oral gavage; single agents
[6] = test system: JW23.3, JH-2-002, WU-356 and WU-386 cells; assay: IncuCyte cell confluence IC50 across the MPNST cell line panel; format: cell-based, murine and human; conditions: 72 h, 3 days, read-out: IC50 for inhibition of cell confluence, range over cell lines
Procedure: as §4

[7] = Mouse body weight and health in the MPNST tumor models; set-up: species or system mice; conditions: in vivo
Procedure: . […] Mouse body weight, an indicator of health, was measured 2-3 times per week.

N#Cc1cc(F)c(C(=O)Nc2ccnc(NC(=O)C3C[C@H]3F)c2)c(Cl)c1 (stereo partly drawn) [TC-JL-37]
apoptosis (2-009 cells [1]): increased apoptosis
apoptosis (JW23.3 cells [2]): increased apoptosis
percent cell confluence (JW23.3 cells [3]; JW23.3 cells, 72 hours): decreased cell confluence
cell confluence (2-009 cells [4]): decreased cell confluence

[2H]C([2H])([2H])NC(=O)c1nnc(NC(=O)C2CC2)cc1Nc1cccc(-c2ncn(C)n2)c1OC [deucravacitinib]
percent cell confluence / proliferation (JH-2-002 cells; JH-2-002 cells, 72 hours): inhibited proliferation
tumor volume relative to vehicle control [5]: nearly half the volume of vehicle control
proliferation (cell confluence) (WU-386 cells; WU-386 cells): inhibited proliferation
IC50 (JW23.3 cells [3]; Mus musculus, 72 h, read-out: IC50 for inhibition of cell confluence): 6.76 µM
proliferation (cell confluence) (WU-356 cells; WU-356 cells): inhibited proliferation
block of JAK1-3 (JAK1-3): does not block JAK1-3 at clinically relevant doses
tumor size (WU-386 MPNST xenograft): non-significant trend toward decreased tumor size

O=C(NOC[C@H](O)CO)c1ccc(F)c(F)c1Nc1ccc(I)cc1F [mirdametinib]
IC50 (JH-2-002 cells; Homo sapiens, 72 h, read-out: IC50 for inhibition of cell confluence): 0.22 µM
tumor volume relative to vehicle control [5]: nearly half the volume of vehicle control
IC50 (WU-386 cells; Homo sapiens, 72 h, WU-386 MPNST cell line, IncuCyte, read-out: IC50 for inhibition of cell confluence): 1.06 µM
IC50 [6]: 0.22 to 1.33 µM
IC50 (WU-356 cells; Homo sapiens, 72 h, WU-356 MPNST cell line, IncuCyte, read-out: IC50 for inhibition of cell confluence): 1.33 µM
mouse body weight / adverse health effects [7]: did not significantly decrease mouse body weight
tumor size (WU-386 MPNST xenograft): non-significant trend toward decreased tumor size

— US12708622B2, “Methods of treating cancer and inhibiting TYK2 and MEK” (Washington University, priority 2021, dated 2026)
